Experimental data: patent US8481586B2, “Pyrrolo[2,3-a] carbazoles and use thereof as PIM kinase inhibitors” (Centre National de la Recherche Scientifique, priority 2008, dated 2013)

Assays:
Format in all cases: biochemical
PIM-1 = PIM-1 (Homo sapiens (Human), UniProt P11309); assay: inhibition test on kinase PIM-1 (residual activity, IC50); settings: for remaining activity at 10 µM: read-out: Percentage of residual activity PIM-1; for IC50: ten concentrations, dose-inhibition curve
Excerpt: (§1) MKK1, ERK 1, ERK 2, JNK1, JNK2, JNK3, p38a MAPK, p38b MAPK, p38g MAPK, p38s MAPK, ERK8, RSK1, RSK2, PDK1, PKBa, PKBb, SGK1, S6K1, PKA, ROCK2, PRK2, PKCa, PKC zeta, PKD1, MSK1, MNK1, MNK2, MAPKAP-K2, MAPKAP-K3, PRAK, CAMKKa, CAMKKb, CAMK1, SmMLCK, PHK, CHK1, CHK2, GSK3b, CDK2/cyclin A, PLK1, PLK1 (Okadaic acid), Aurora B, Aurora C, AMPK, MARK3, BRSK2, MELK, CK1, CK2, NEK2a, NEK6, NEK7, IKKb, PIM-1, PIM-2, PIM-3, SRPK1, MST2, EF2K, HIPK2, HIPK3, PAK-4, PAK5, PAK6, Src, Lck, CSK.
(§2) The results in terms of residual activity of the kinases after being placed in contact with the compounds of Examples 2, 3 and 5, at a concentration of 10 μM (10 μmol/L), are shown in Table 1 below.
(§3) The higher the residual activity of the kinase tested, the lower the inhibitory activity of the test compounds on the tested kinase.
(§4) The compounds according to the invention were then tested on the kinases PIM-1, PIM-2 and PIM-3.
(§5) The results in terms of percentage of residual activity after placing the compounds according to the invention in contact with each of the kinases PIM-1, PIM-2 and PIM-3 are given in Table 2 below.
(§6) The higher the residual activity, the lower the inhibitory activity of the test compounds.
(§7) The mean inhibitory concentrations (IC50) of certain preferred compounds of the invention were determined in the following manner: the IC50 values were measured after performing the inhibition tests on the kinases PIM-1, PIM-2 and PIM-3 at ten different concentrations for each test compound, and the IC50 value was determined from the dose-inhibition curves obtained.

PIM-3 = PIM-3 (Homo sapiens (Human), UniProt Q86V86); assay: inhibition test on kinase PIM-3 (residual activity, IC50); settings: for remaining activity at 10 µM: product at 10 μmol/L, Table 2, N.I. = not inhibitory, read-out: Percentage of residual activity PIM-3; for IC50: ten concentrations, dose-inhibition curve
Excerpt: as §1, §2, §3, §4, §5, §6, §7

PIM-2 = PIM-2 (Homo sapiens (Human), UniProt Q9P1W9); assay: inhibition test on kinase PIM-2 (residual activity, IC50); settings: product at 10 μmol/L, Table 2, N.I. = not inhibitory; for remaining activity at 10 µM: read-out: Percentage of residual activity PIM-2
Chain of PIM-2 (Q9P1W9 whole entry, species assumed): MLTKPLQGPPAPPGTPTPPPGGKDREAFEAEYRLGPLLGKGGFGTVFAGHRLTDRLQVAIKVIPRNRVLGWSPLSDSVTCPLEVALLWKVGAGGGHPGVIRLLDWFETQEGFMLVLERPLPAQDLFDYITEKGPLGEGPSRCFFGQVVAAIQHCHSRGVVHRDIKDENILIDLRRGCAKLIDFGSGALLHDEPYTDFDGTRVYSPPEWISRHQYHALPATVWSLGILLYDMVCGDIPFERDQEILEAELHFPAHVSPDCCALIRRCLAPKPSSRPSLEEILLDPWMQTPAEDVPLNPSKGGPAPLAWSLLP
Excerpt: as §1, §2, §3, §4, §5, §6, §7

[1] = product at 10 μmol/L, Table 2, N.I. = not inhibitory

Chain of PIM-1 (P11309 whole entry, species assumed): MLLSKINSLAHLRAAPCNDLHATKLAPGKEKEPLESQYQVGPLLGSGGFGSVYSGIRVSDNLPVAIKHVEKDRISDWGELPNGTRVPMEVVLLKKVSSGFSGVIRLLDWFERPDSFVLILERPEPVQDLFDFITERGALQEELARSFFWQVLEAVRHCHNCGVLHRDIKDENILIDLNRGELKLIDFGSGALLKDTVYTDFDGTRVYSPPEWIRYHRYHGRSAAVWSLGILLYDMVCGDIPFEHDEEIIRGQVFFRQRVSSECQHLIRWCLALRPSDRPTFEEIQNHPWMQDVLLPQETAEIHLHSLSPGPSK

SMILES	remaining activity at 10 µM (PIM-1; [1]) [%]	remaining activity at 10 µM (PIM-3) [%]	IC50 (PIM-3) [nM]	remaining activity at 10 µM (PIM-2) [%]	Percentage of residual activity PIM-2 (PIM-2)	IC50 (PIM-1) [nM]	Percentage of residual activity PIM-1 (PIM-1; [1])
Brc1ccc2[nH]c3c(ccc4cc[nH]c43)c2c1 [Example 15, 7-bromo-1,10-dihydropyrrolo[2,3-a]carbazole]	12	8	440	46	–	–	–
CCc1cccc2c1[nH]c1c2ccc2c(C=O)c[nH]c21 [Example 51, 9-ethyl-1,10-dihydropyrrolo[2,3-a]carbazole-3-carbaldehyde]	1	10	–	14	–	–	–
O=S(=O)(c1ccccc1)n1ccc2ccc3c4cc(Br)ccc4[nH]c3c21 [Example 14, 1-benzenesulfonyl-7-bromo-1,10-dihydropyrrolo-[2,3-a]carbazole]	51	61	–	52	–	–	–
O=Cc1c[nH]c2c1ccc1c2[nH]c2cc(Cl)cc(Cl)c21 [Example 48, 6,8-dichloro-1,10-dihydropyrrolo[2,3-a]carbazole-3-carbaldehyde]	8	6	–	34	–	–	–
O=Cc1c[nH]c2c1ccc1c3cc(-c4ccc(C(F)(F)F)cc4)ccc3[nH]c12 [Example 41, 7-(4-trifluoromethylphenyl)-1,10-dihydropyrrolo-[2,3-a]carbazole-3-carbaldehyde]	28	23	–	52	–	–	–
OCCc1c[nH]c2c1ccc1c3ccccc3[nH]c12 [Example 9, 2-(1,10-dihydropyrrolo[2,3-a]carbazol-3-yl)ethanol]	35	21	–	50	–	–	–
N#Cc1ccc2[nH]c3c(ccc4c(C=O)c[nH]c43)c2c1 [Example 49, 3-formyl-1,10-dihydropyrrolo[2,3-a]carbazole-7-carbonitrile]	92	14	–	–	N.I.	–	–
O=Cc1c[nH]c2c1ccc1c3cc(-c4ccc(F)cc4)ccc3[nH]c12 [Example 39, 7-(4-fluorophenyl)-1,10-dihydropyrrolo[2,3-a]carbazole-3-carbaldehyde]	15	15	–	55	–	–	–
CCc1cccc2c1[nH]c1c2ccc2cc[nH]c21 [Example 33, 9-ethyl-1,10-dihydropyrrolo[2,3-a]carbazole]	28	23	–	96	–	–	–
O=Cc1c[nH]c2c1ccc1c3cccc(Br)c3[nH]c12 [Example 45, 9-bromo-1,10-dihydropyrrolo[2,3-a]carbazole-3-carbaldehyde]	3	9	–	28	–	–	–
O=Cc1c[nH]c2c1ccc1c3cc(-c4ccc(F)cc4F)ccc3[nH]c12 [Example 40, 7-(2,4-difluorophenyl)-1,10-dihydropyrrolo[2,3-a]-carbazole-3-carbaldehyde]	6	6	200	32	–	660	–
CCN(CC)C(=O)C(=O)c1c[nH]c2c1ccc1c3ccccc3[nH]c12 [Example 10, 2-(1,10-dihydropyrrolo[2,3-a]carbazol-3-yl)-N,N-diethyl-2-oxoacetamide]	54	39	–	51	–	–	–
O=Cc1c[nH]c2c1ccc1c3cc(-c4ccc(OC(F)(F)F)cc4)ccc3[nH]c12 [Example 42, 7-(4-trifluoromethoxyphenyl)-1,10-dihydropyrrolo[2,3-a]carbazole-3-carbaldehyde]	29	31	–	70	–	–	–
Clc1cc(Cl)c2c(c1)[nH]c1c2ccc2cc[nH]c21 [Example 30, 6,8-dichloro-1,10-dihydropyrrolo[2,3-a]carbazole]	10	14	–	36	–	–	–
O=Cc1c[nH]c2c1ccc1c3cccc(F)c3[nH]c12 [Example 47, 9-Fluoro-1,10-dihydropyrrolo[2,3-a]carbazole-3-carbaldehyde]	5	3	–	11	–	–	–
COc1cccc(-c2ccc3[nH]c4c(ccc5cc[nH]c54)c3c2)c1 [Example 18, 7-(3-methoxyphenyl)-1,10-dihydropyrrolo[2,3-a]-carbazole]	46	39	–	51	–	–	–
O=[N+]([O-])c1ccc2[nH]c3c(ccc4cc[nH]c43)c2c1 [Example 32, 7-nitro-1,10-dihydropyrrolo[2,3-a]carbazole]	9	11	–	23	–	–	–
O=Cc1c[nH]c2c1ccc1c3cc(-c4ccc(-c5ccccc5)cc4)ccc3[nH]c12 [Example 37, 7-(4-biphenyl)-1,10-dihydropyrrolo[2,3-a]carbazole-3-carbaldehyde]	39	48	–	70	–	–	–
FC(F)(F)c1cccc2c1[nH]c1c2ccc2cc[nH]c21 [Example 34, 9-(trifluoromethyl)-1,10-dihydropyrrolo[2,3-a]carbazole]	85	45	–	–	N.I.	–	–
Brc1cccc2[nH]c3c(ccc4cc[nH]c43)c12 [Example 26, 6-bromo-1,10-dihydropyrrolo[2,3-a]carbazole]	8	11	–	37	–	–	–
CCN(CC)CC(O)c1c[nH]c2c1ccc1c3ccccc3[nH]c12 (centres unmarked) [Example 12, 1-(1,10-dihydropyrrolo[2,3-a]carbazol-3-yl)-2-diethylaminoethanol]	24	16	–	53	–	–	–
Fc1cccc2c1[nH]c1c2ccc2cc[nH]c21 [Example 29, 9-fluoro-1,10-dihydropyrrolo[2,3-a]carbazole]	–	43	–	–	N.I.	–	N.I.
O=Cc1c[nH]c2c1ccc1c3cc(F)ccc3[nH]c12 [Example 46, 7-Fluoro-1,10-dihydropyrrolo[2,3-a]carbazole-3-carbaldehyde]	4	5	–	21	–	–	–
CCN(CC)C(=O)/C(=N\O)c1c[nH]c2c1ccc1c3ccccc3[nH]c12 [Example 13, 2-(1,10-dihydropyrrolo[2,3-a]carbazol-3-yl)-N,N-diethyl-2-hydroxyiminoethanamide]	41	21	–	27	–	–	–
CCOC(=O)C(=O)c1c[nH]c2c1ccc1c3ccccc3[nH]c12 [Example 8, ethyl 2-(1,10-dihydropyrrolo[2,3-a]carbazol-3-yl)-2-oxoacetate]	44	33	–	47	–	–	–
CCN(CC)CCc1c[nH]c2c1ccc1c3ccccc3[nH]c12 [Example 11, 2-(1,10-dihydropyrrolo[2,3-a]carbazol-3-yl)-N,N-diethylethanamine]	39	25	–	78	–	–	–
Brc1ccc2c(c1)[nH]c1c2ccc2cc[nH]c21 [Example 25, 8-bromo-1,10-dihydropyrrolo[2,3-a]carbazole]	74	15	–	93	–	–	–
OCc1c[nH]c2c1ccc1c3ccccc3[nH]c12 [Example 4, (1,10-dihydropyrrolo[2,3-a]carbazol-3-yl)methanol]	28	18	–	47	–	–	–
O=Cc1c[nH]c2c1ccc1c3cc(Br)ccc3[nH]c12 [Example 16, 7-bromo-1,10-dihydropyrrolo[2,3-a]carbazole-3-carbaldehyde]	6	6	40	57	–	570	–
Fc1ccc2[nH]c3c(ccc4cc[nH]c43)c2c1 [Example 28, 7-fluoro-1,10-dihydropyrrolo[2,3-a]carbazole]	35	20	–	84	–	–	–
